The target in one test is VIM-1 (Pseudomonas aeruginosa (strain ATCC 15692 / DSM 22644 / CIP 104116 / JCM 14847 / LMG 12228 / 1C / PRS 101 / PAO1), UniProt A0A0F7KYQ8). The test can be described thus: Enzyme activity: determination of IC50, fluorescence assay with CCF2-FA substrate (VIM-1). In kind it is biochemical. Particulars: CCF2-FA fluorescence assay.
The next test addresses NDM-1 (Klebsiella pneumoniae, UniProt C7C422). The test can be described thus: biochemical. Particulars: NDM-1 enzyme, CCF2-FA fluorescence assay; read-out: NDM-1 IC50. The class given is biochemical.
The next test concerns the target IMP-1 (Serratia marcescens, UniProt P52699). The test can be described thus: biochemical. The class given is biochemical. Particulars: IMP-1 enzyme, CCF2-FA fluorescence assay; read-out: IMP-1 IC50.
Test [1] concerns Serratia marcescens expressing IMP-1 (CL5741). The test can be described thus: Antibiotic potentiation activity: synergistic concentration (MITC95) with imipenem, OD600 growth. In kind it is cell-based. The settings on record: Serratia marcescens expressing IMP-1 (CL5741), 95% growth inhibition. The gist of the method:
(§1)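 Test compound was combined with 4 μg/ml imipenem (or optionally 1 μg/ml), or with no antibiotic, against saline-suspended colonies diluted 1:100 in 1.1×CAMHB. Strains were E. coli NDM-1, S. marcescens IMP-1 and K. pneumoniae VIM-1. Plates were incubated 22–24 h at 35 °C before absorbance (OD600) readout.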

Test [2] has as its system Escherichia coli expressing NDM-1 (CLB30016). The test is described as above. The class given is cell-based. Particulars: Escherichia coli expressing NDM-1 (CLB30016), 95% growth inhibition. The gist of the method:
as §1

Test [3] deals with Klebsiella pneumoniae expressing VIM-1 (IHMA599644). The test is described as above. Particulars: Klebsiella pneumoniae expressing VIM-1 (IHMA599644), 95% growth inhibition. The class given is cell-based. The gist of the method: as §1
Setting [4] is: VIM-1 enzyme, read-out: VIM-1 IC50.

Where two headings read alike, the source gives them in different places.

As a reminder, the IC50 is the concentration at which inhibition is half-maximal.

Chain of NDM-1 (C7C422 whole entry, looked up, species assumed): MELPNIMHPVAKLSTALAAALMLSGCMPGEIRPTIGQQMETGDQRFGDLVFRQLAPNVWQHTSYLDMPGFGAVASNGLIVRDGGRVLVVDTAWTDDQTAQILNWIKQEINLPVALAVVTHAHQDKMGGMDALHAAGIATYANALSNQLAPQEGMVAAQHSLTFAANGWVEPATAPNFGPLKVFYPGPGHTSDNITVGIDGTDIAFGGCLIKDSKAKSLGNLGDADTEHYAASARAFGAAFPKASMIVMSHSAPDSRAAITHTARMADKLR
Chain of IMP-1 (P52699 whole entry, looked up): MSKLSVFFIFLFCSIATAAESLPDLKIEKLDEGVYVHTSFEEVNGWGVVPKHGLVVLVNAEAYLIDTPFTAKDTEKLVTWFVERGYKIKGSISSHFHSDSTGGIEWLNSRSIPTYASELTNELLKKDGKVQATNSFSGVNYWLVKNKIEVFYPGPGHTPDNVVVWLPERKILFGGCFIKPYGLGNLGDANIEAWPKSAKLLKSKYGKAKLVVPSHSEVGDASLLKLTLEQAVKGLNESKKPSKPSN

As for `NS(=O)(=O)c1cccc(-c2snc3ncccc23)c1-c1nnn[nH]1` [Example 413, 3-isothiazolo[3,4-b]pyridin-3-yl-2-(1H-tetrazol-5-yl)benzenesulfonamide], the IC50 at VIM-1 (setting [4]) turned out to be 2.08 nM; at NDM-1, 2.12 nM; at IMP-1, 340 nM. Besides, the “Serratia marcescens MITC95” value in test [1] worked out at 9.375 µM. For the same compound, the “Escherichia coli MITC95” value in test [2] was found to be 0.5859 µM. The “Klebsiella pneumoniae MITC95” value in test [3] was determined as 4.688 µM.
Consider `NS(=O)(=O)c1cccc(-c2snc3cccnc23)c1-c1nnn[nH]1` [Example 414, 3-isothiazolo[4,3-b]pyridin-3-yl-2-(1H-tetrazol-5-yl)benzenesulfonamide], for which the figures for the IC50 on VIM-1 (setting [4]), at NDM-1 and at IMP-1 were 19.9 nM, 6.01 nM and 177 nM, respectively. In test [1], the “Serratia marcescens MITC95” value was found to be 4.688 µM. Further, the “Escherichia coli MITC95” value in test [2] came to 2.344 µM. Also, in test [3], the “Klebsiella pneumoniae MITC95” value was determined as 18.75 µM.
`Nc1ccc(-c2cccc(S(N)(=O)=O)c2-c2nnn[nH]2)c2ccncc12` [Example 415, 3-(8-amino-5-isoquinolyl)-2-(1H-tetrazol-5-yl)benzenesulfonamide]: the IC50 was 1.1 nM at VIM-1 (setting [4]), 0.58 nM at NDM-1 and 32.3 nM at IMP-1. In addition, in test [1], the “Serratia marcescens MITC95” value stood at 1.172 µM. Moreover, the “Escherichia coli MITC95” value in test [2] amounted to 0.5859 µM. Further, the “Klebsiella pneumoniae MITC95” value in test [3] is 3.125 µM.
With `Nc1cnc2cc(-c3cccc(S(N)(=O)=O)c3-c3nnn[nH]3)ccc2c1` [Example 416, 3-(3-amino-7-quinolyl)-2-(1H-tetrazol-5-yl)benzenesulfonamide], the results for the IC50 at VIM-1 (setting [4]), at NDM-1 and at IMP-1 were 13.7 nM, 2.42 nM and 56.5 nM, respectively. For the same compound, the “Serratia marcescens MITC95” value in test [1] was found to be 6.25 µM. For the same compound, the “Escherichia coli MITC95” value in test [2] is 2.344 µM. Moreover, the “Klebsiella pneumoniae MITC95” value in test [3] was determined as 25 µM.
Consider `Nc1nc2ccc(-c3cccc(S(N)(=O)=O)c3-c3nnn[nH]3)cc2s1` [Example 417, 3-(2-amino-1,3-benzothiazol-6-yl)-2-(1H-tetrazol-5-yl)benzenesulfonamide], for which the IC50 at VIM-1 (setting [4]) stood at 8.53 nM; on NDM-1 it was 0.76 nM; at IMP-1, 49.8 nM. The “Serratia marcescens MITC95” value in test [1] turned out to be 2.344 µM. Moreover, the “Escherichia coli MITC95” value in test [2] amounted to 1.953 µM. Moreover, the “Klebsiella pneumoniae MITC95” value in test [3] turned out to be 9.375 µM.
On to `Nc1cccn2c(-c3cccc(S(N)(=O)=O)c3-c3nnn[nH]3)cnc12` [Example 418, 3-(8-aminoimidazo[1,2-a]pyridin-3-yl)-2-(1H-tetrazol-5-yl)benzenesulfonamide], for which the IC50 is 13 nM on VIM-1 (setting [4]), 1.18 nM at NDM-1 and 118 nM on IMP-1. Besides, the “Serratia marcescens MITC95” value in test [1] stood at 6.25 µM. For the same compound, the “Escherichia coli MITC95” value in test [2] amounted to 0.3906 µM. Also, the “Klebsiella pneumoniae MITC95” value in test [3] was 6.25 µM.
With `NS(=O)(=O)c1cccc(-c2cnc3n2CCCC3)c1-c1nnn[nH]1` [Example 419, 3-(5,6,7,8-tetrahydroimidazo[1,2-a]pyridin-3-yl)-2-(1H-tetrazol-5-yl)benzenesulfonamide], the IC50 on VIM-1 (setting [4]) worked out at 469 nM; at NDM-1 it was 51.9 nM; on IMP-1, 1040 nM. The “Serratia marcescens MITC95” value in test [1] amounted to 25 µM. In addition, the “Escherichia coli MITC95” value in test [2] turned out to be 0.25 µM. In test [3], the “Klebsiella pneumoniae MITC95” value was 25 µM.
With `Nc1ncc2ccc(-c3cccc(S(N)(=O)=O)c3-c3nnn[nH]3)cc2n1` [Example 420, 3-(2-Aminoquinazolin-7-yl)-2-(1H-tetrazol-5-yl)benzenesulfonamide], the IC50 at VIM-1 (VIM-1 IC50, VIM-1 enzyme) amounted to 30.7 nM; at NDM-1 it was 4.74 nM; at IMP-1, 217 nM. Besides, in test [1], the “Serratia marcescens MITC95” value came to 9.375 µM. In addition, the “Escherichia coli MITC95” value in test [2] came out at 1.563 µM. Moreover, the “Klebsiella pneumoniae MITC95” value in test [3] was determined as 18.75 µM.
Regarding `NS(=O)(=O)c1cccc(-c2cccc3sc(Br)nc23)c1-c1nnn[nH]1` [Example 421, 3-(2-Bromobenzo[d]thiazol-4-yl)-2-(1H-tetrazol-5-yl)benzenesulfonamide], the results for the IC50 at VIM-1 (setting [4]), at NDM-1 and on IMP-1 were 2.3 nM, 0.291 nM and 18.8 nM, respectively. Also, in test [1], the “Serratia marcescens MITC95” value worked out at 25 µM. Also, in test [2], the “Escherichia coli MITC95” value worked out at 3.125 µM. Further, the “Klebsiella pneumoniae MITC95” value in test [3] was over 200 µM.
For the compound `NS(=O)(=O)c1cccc(-c2cccc3scnc23)c1-c1nnn[nH]1` [Example 422, 3-(Benzo[d]thiazol-4-yl)-2-(1H-tetrazol-5-yl)benzenesulfonamide], the IC50 at VIM-1 (setting [4]) came to 22.6 nM; at NDM-1, 1.3 nM; on IMP-1, 56 nM. Further, in test [1], the “Serratia marcescens MITC95” value worked out at 25 µM. For the same compound, the “Escherichia coli MITC95” value in test [2] worked out at 3.125 µM. Further, the “Klebsiella pneumoniae MITC95” value in test [3] came to 100 µM.
For the compound `Nc1nc2c(-c3ccc(C(F)(F)F)c(S(N)(=O)=O)c3-c3nnn[nH]3)cccc2s1` [Example 423, 3-(2-amino-1,3-benzothiazol-4-yl)-2-(2H-tetrazol-5-yl)-6-(trifluoromethyl)benzenesulfonamide], the IC50 at VIM-1 (setting [4]) came out at 0.711 nM; at NDM-1 it was 0.378 nM; at IMP-1 it was 1.29 nM. Besides, the “Serratia marcescens MITC95” value in test [1] amounted to 0.125 µM. The “Escherichia coli MITC95” value in test [2] was 1.086 µM. In addition, the “Klebsiella pneumoniae MITC95” value in test [3] was 3.125 µM.
Regarding `Nc1ncc(-c2ccc(Br)c(S(N)(=O)=O)c2-c2nn[nH]n2)s1` [Example 424, 3-(2-aminothiazol-5-yl)-6-bromo-2-(2H-tetrazol-5-yl)benzenesulfonamide], the IC50 on VIM-1 (setting [4]) came to 32.7 nM; at NDM-1 it was 18.9 nM; at IMP-1, 80.8 nM. Moreover, in test [1], the “Serratia marcescens MITC95” value stood at 1.563 µM. For the same compound, in test [2], the “Escherichia coli MITC95” value stood at 0.7813 µM. In addition, the “Klebsiella pneumoniae MITC95” value in test [3] was 15.63 µM.
Take `N=CNCc1ccc(-c2ccc(Br)c(S(N)(=O)=O)c2-c2nn[nH]n2)cc1` [Example 425, N-((4′-bromo-3′-sulfamoyl-2′-(2H-tetrazol-5-yl)-[1,1′-biphenyl]-4-yl)methyl)formimidamide]: the IC50 against VIM-1 (VIM-1 IC50, VIM-1 enzyme) was determined as 4.07 nM; on NDM-1, 13.5 nM; at IMP-1, 15.9 nM. Moreover, in test [1], the “Serratia marcescens MITC95” value came to 0.5859 µM. Moreover, in test [2], the “Escherichia coli MITC95” value amounted to 0.3906 µM. The “Klebsiella pneumoniae MITC95” value in test [3] worked out at 1.563 µM.
Turning to `NS(=O)(=O)c1cccc(-c2ccc(NCCO)nc2)c1-c1nn[nH]n1` [Example 426, 3-(6-((2-hydroxyethyl)amino)pyridin-3-yl)-2-(2H-tetrazol-5-yl)benzenesulfonamide], the IC50 came to 260 nM on VIM-1 (setting [4]), 9.28 nM on NDM-1 and 353 nM on IMP-1. The “Serratia marcescens MITC95” value in test [1] stood at 9.375 µM. In test [2], the “Escherichia coli MITC95” value came out at 0.4063 µM. Further, the “Klebsiella pneumoniae MITC95” value in test [3] was determined as 25 µM.
`Nc1ccc(CCc2cccc(S(N)(=O)=O)c2-c2nn[nH]n2)cn1` [Example 427, 3-(2-(6-aminopyridin-3-yl)ethyl)-2-(2H-tetrazol-5-yl)benzenesulfonamide]: the IC50 came out at 450 nM at VIM-1 (setting [4]), 29.8 nM at NDM-1 and 109 nM on IMP-1. Besides, the “Serratia marcescens MITC95” value in test [1] came out at 4.688 µM. In addition, the “Escherichia coli MITC95” value in test [2] turned out to be 0.25 µM. Besides, the “Klebsiella pneumoniae MITC95” value in test [3] is 75 µM.

The values above are taken from patent US9708336B2, “Metallo-beta-lactamase inhibitors” (priority 2014, dated 2017).
